Assays:
barnyardgrass [1] = test: Test B pre-/postemergence herbicide test; format: in vivo, Echinochloa crus-galli; conditions: for Barnyardgrass plant response rating: postemergence, visual rating
How it was run: (§1)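 Herbicidal effect was judged by eye on a 0–100 scale after plants stood 13 to 15 days in the greenhouse following pre- or postemergence treatment with surfactant-containing formulations.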

Surinam grass = test: Test B pre-/postemergence herbicide test; format: in vivo, Urochloa decumbens; conditions: for Surinam Grass plant response rating: postemergence, visual rating
How it was run: (§2)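 Greenhouse pot assay with simultaneous preemergence (treated seed) and postemergence (2–18 cm seedlings) applications of surfactant-containing, non-phytotoxic solvent formulations. Response scored visually 13–15 days later on a 0–100 scale, 100 meaning complete control.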

cocklebur = test: Test B pre-/postemergence herbicide test; format: in vivo, Xanthium strumarium; conditions: for Cocklebur plant response rating: postemergence, visual rating
How it was run: as §1

corn = test: Test B pre-/postemergence herbicide test; format: in vivo, Zea mays
How it was run: as §2

large crabgrass = test: Test B pre-/postemergence herbicide test; format: in vivo, Digitaria sanguinalis; conditions: for Crabgrass, Large plant response rating: postemergence, visual rating
How it was run: as §2

giant foxtail = test: Test B pre-/postemergence herbicide test; format: in vivo, Setaria faberi; conditions: for Foxtail, Giant plant response rating: postemergence, visual rating
How it was run: as §2

pigweed = test: Test B pre-/postemergence herbicide test; format: in vivo, Amaranthus retroflexus; conditions: for Pigweed plant response rating: postemergence, visual rating
How it was run: as §2

velvetleaf = test: Test B pre-/postemergence herbicide test; format: in vivo, Abutilon theophrasti; conditions: for Velvetleaf plant response rating: postemergence, visual rating
How it was run: as §2

blackgrass = test: Test B postemergence herbicide test; format: in vivo, Alopecurus myosuroides; conditions: scale 0 (no effect) to 100 (complete control); for Plant response rating, Blackgrass: Postemergence, 500 g ai/ha, visual rating after 13 to 15 days; for Blackgrass plant response rating: postemergence, 125 g ai/ha, visual rating
How it was run: (§3)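 Treated at 2-leaf (paddy) or 1–4-leaf, 2–18 cm (postemergence); greenhouse 13–15 d; visual score vs control, 0 none to 100 complete control; dash = not tested.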

wheat = test: Test B postemergence herbicide test; format: in vivo, Triticum aestivum; parameters: key to Wheat plant response rating: 0 = no effect, 100 = complete control; conditions: scale 0 (no effect) to 100 (complete control); for Plant response rating, Wheat: Postemergence, 500 g ai/ha, visual rating after 13 to 15 days; for Wheat plant response rating: postemergence, 125 g ai/ha, visual rating
How it was run: (§4)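 After treating 2-leaf paddy plants or 2–18 cm postemergence plants (1 to 4 leaves) with formulated chemical, researchers kept them in a greenhouse for 13–15 days. Effects were judged visually versus controls: 0 indicates none, 100 total control.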

wild oat = test: Test B postemergence herbicide test; format: in vivo, Avena fatua; conditions: scale 0 (no effect) to 100 (complete control); for Plant response rating, Oat, Wild: Postemergence, 500 g ai/ha, visual rating after 13 to 15 days; for Oat, Wild plant response rating: postemergence, 125 g ai/ha, visual rating
How it was run: as §4

rice = test: Test B flooded paddy test; format: in vivo, Oryza sativa; conditions: 1000 g ai/ha, visual rating, scale 0 to 100 (0 no effect, 100 complete control), 13 to 15 days
How it was run: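 Greenhouse test; postemergence application to plants at 1–4 leaves (2–18 cm); paddy species at 2 leaves; evaluated visually vs controls at 13–15 days; scale 0–100 (100 = complete control).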

[2] = tested on: small flower umbrella sedge; test: Test B flooded paddy test; format: in vivo, Cyperus difformis; conditions: 1000 g ai/ha, visual rating, scale 0 to 100 (0 no effect, 100 complete control), 13 to 15 days
How it was run: as §3

ducksalad = test: Test B flooded paddy test; format: in vivo, Heteranthera limosa; conditions: 1000 g ai/ha, visual rating, scale 0 to 100 (0 no effect, 100 complete control), 13 to 15 days
How it was run: as §3

barnyardgrass [3] = test: Test B flooded paddy test; format: in vivo, Echinochloa crus-galli; conditions: 1000 g ai/ha, visual rating, scale 0 to 100 (0 no effect, 100 complete control), 13 to 15 days
How it was run: as §3

[4] = 500 g ai/ha, visual rating 0-100, 0 no effect, 100 complete control, preemergence
[5] = Postemergence, 500 g ai/ha, visual rating after 13 to 15 days, scale 0 (no effect) to 100 (complete control)
[6] = 125 g ai/ha, scale 0 (no effect) to 100 (complete control)
[7] = preemergence, 125 g ai/ha, 0 to 100 scale, 0 is no effect, 100 is complete control

## CC(=NO)c1cccc(NC(=O)c2cc(C(C)(C)C)nn2CC(F)(F)F)c1 [Compound 112]
Barnyardgrass [1]; [4]
  Plant response rating, Barnyardgrass: 70
Barnyardgrass [1]; [5]
  Plant response rating, Barnyardgrass: 70
Barnyardgrass [1]; [6]
  Barnyardgrass plant response rating: 50
Barnyardgrass [1]; [7]
  Plant response rating, Barnyardgrass: 50
Surinam grass; [4]
  Plant response rating, Surinam Grass: 20
Surinam grass; [5]
  Plant response rating, Surinam Grass: 20
Surinam grass; [6]
  Surinam Grass plant response rating: 20
Surinam grass; [7]
  Plant response rating, Surinam Grass: 20
cocklebur; [4]
  Plant response rating, Cocklebur: 0
cocklebur; [5]
  Plant response rating, Cocklebur: 100
cocklebur; [6]
  Cocklebur plant response rating: 60
cocklebur; [7]
  Plant response rating, Cocklebur: 0
corn; [4]
  Plant response rating, Corn: 0
corn; [5]
  Plant response rating, Corn: 40
corn; postemergence, 125 g ai/ha, visual rating, scale 0 (no effect) to 100 (complete control)
  Corn plant response rating: 40
corn; [7]
  Plant response rating, Corn: 0
Large crabgrass; [4]
  Plant response rating, Crabgrass, Large: 90
Large crabgrass; [5]
  Plant response rating, Crabgrass, Large: 30
Large crabgrass; [6]
  Crabgrass, Large plant response rating: 20
Large crabgrass; [7]
  Plant response rating, Crabgrass, Large: 20
Giant foxtail; [4]
  Plant response rating, Foxtail, Giant: 20
Giant foxtail; [5]
  Plant response rating, Foxtail, Giant: 30
Giant foxtail; [6]
  Foxtail, Giant plant response rating: 20
Giant foxtail; [7]
  Plant response rating, Foxtail, Giant: 10
pigweed; [4]
  Plant response rating, Pigweed: 90
pigweed; [5]
  Plant response rating, Pigweed: 100
pigweed; [6]
  Pigweed plant response rating: 90
pigweed; [7]
  Plant response rating, Pigweed: 0
velvetleaf; [4]
  Plant response rating, Velvetleaf: 50
velvetleaf; [5]
  Plant response rating, Velvetleaf: 70
velvetleaf; [6]
  Velvetleaf plant response rating: 30
velvetleaf; [7]
  Plant response rating, Velvetleaf: 0
blackgrass
  Plant response rating, Blackgrass: 20
  Blackgrass plant response rating: 20
wheat
  Plant response rating, Wheat: 30
  Wheat plant response rating: 20
Wild oat
  Plant response rating, Oat, Wild: 40
  Oat, Wild plant response rating: 40
rice
  Rice plant response rating: 70
[2]
  Sedge, Umbrella plant response rating: 80
ducksalad
  Ducksalad plant response rating: 80
Barnyardgrass [3]
  Barnyardgrass plant response rating: 50

## C=CCn1nc(C(C)(C)C)cc1C(=O)Nc1cccc(C(C)=NO)c1 [Compound 117]
Barnyardgrass [1]; [4]
  Plant response rating, Barnyardgrass: 90
Barnyardgrass [1]; [5]
  Plant response rating, Barnyardgrass: 30
Barnyardgrass [1]; [6]
  Barnyardgrass plant response rating: 20
Barnyardgrass [1]; [7]
  Plant response rating, Barnyardgrass: 60
Surinam grass; [4]
  Plant response rating, Surinam Grass: 60
Surinam grass; [5]
  Plant response rating, Surinam Grass: 40
Surinam grass; [6]
  Surinam Grass plant response rating: 30
Surinam grass; [7]
  Plant response rating, Surinam Grass: 30
cocklebur; [4]
  Plant response rating, Cocklebur: 30
cocklebur; [5]
  Plant response rating, Cocklebur: 90
cocklebur; [6]
  Cocklebur plant response rating: 30
cocklebur; [7]
  Plant response rating, Cocklebur: 20
corn; [4]
  Plant response rating, Corn: 30
corn; [7]
  Plant response rating, Corn: 0
Large crabgrass; [4]
  Plant response rating, Crabgrass, Large: 100
Large crabgrass; [5]
  Plant response rating, Crabgrass, Large: 30
Large crabgrass; [6]
  Crabgrass, Large plant response rating: 10
Large crabgrass; [7]
  Plant response rating, Crabgrass, Large: 90
Giant foxtail; [4]
  Plant response rating, Foxtail, Giant: 80
Giant foxtail; [5]
  Plant response rating, Foxtail, Giant: 20
Giant foxtail; [6]
  Foxtail, Giant plant response rating: 10
Giant foxtail; [7]
  Plant response rating, Foxtail, Giant: 20
pigweed; [4]
  Plant response rating, Pigweed: 90
pigweed; [5]
  Plant response rating, Pigweed: 90
pigweed; [6]
  Pigweed plant response rating: 50
pigweed; [7]
  Plant response rating, Pigweed: 60
velvetleaf; [4]
  Plant response rating, Velvetleaf: 70
velvetleaf; [5]
  Plant response rating, Velvetleaf: 50
velvetleaf; [6]
  Velvetleaf plant response rating: 20
velvetleaf; [7]
  Plant response rating, Velvetleaf: 60
blackgrass
  Plant response rating, Blackgrass: 10
  Blackgrass plant response rating: 0
wheat
  Plant response rating, Wheat: 20
  Wheat plant response rating: 10
Wild oat
  Plant response rating, Oat, Wild: 20
  Oat, Wild plant response rating: 10
rice
  Rice plant response rating: 50
[2]
  Sedge, Umbrella plant response rating: 90
ducksalad
  Ducksalad plant response rating: 80
Barnyardgrass [3]
  Barnyardgrass plant response rating: 70
